Square brackets hold non-standard residues; d marks the D form. Peptide text beside a SMILES is read from it. sY = N[C@@H](Cc1ccc(OS(=O)(=O)O)cc1)C(=O)O; Sar = CNCC(=O)O
Tests used:
Prothrombin (Bos taurus) = Prothrombin (Bos taurus) (UniProt P00735); test: Relative potency for fibrin clot inhibition compared to hirudin55-65.; assay type: functional; parameters: unit not given here
Prothrombin = Prothrombin (Bos taurus, UniProt P00735); test: Inhibition of plasma fibrin clot formation by thrombin in vitro.; assay type: functional, cell-free

| Relative potency (Prothrombin (Bos taurus)) | IC50 (Prothrombin) | SMILES |
| --- | --- | --- |
| < 3 | > 200 µM | CC[C@H](C)[C@H](NC(=O)[C@H](CCC(=O)O)NC(=O)[C@H](C)NC(=O)[C@H](Cc1ccccc1)NC(=O)[C@@H](N)CC(=O)O)C(=O)N1CCC[C@H]1C(=O)N[C@@H](CCC(=O)O)C(=O)N[C@@H](CCC(=O)O)C(=O)N[C@@H](Cc1ccc(OS(=O)(=O)O)cc1)C(=O)N[C@@H](CC(C)C)C(=O)N[C@@H](CCC(N)=O)C(=O)O (H-DFAEIPEE[sY]LQ-OH) |
| 12 | 59.1 µM | CC[C@H](C)[C@H](NC(=O)[C@H](CCC(=O)O)NC(=O)[C@H](CCC(=O)O)NC(=O)[C@H](Cc1ccccc1)NC(=O)[C@@H](N)CC(=O)O)C(=O)N1CCC[C@H]1C(=O)N[C@@H](CCC(=O)O)C(=O)N[C@@H](CCC(=O)O)C(=O)N[C@@H](CCC(=O)O)C(=O)N[C@@H](CC(C)C)C(=O)N[C@@H](C)C(=O)O (H-DFEEIPEEELA-OH) |
| < 2 | > 200 µM | CC[C@H](C)[C@H](NC(=O)[C@H](CCC(=O)O)NC(=O)[C@H](CCC(=O)O)NC(=O)[C@H](CCC(=O)O)NC(=O)[C@@H](N)CC(=O)O)C(=O)N1CCC[C@H]1C(=O)N[C@@H](CCC(=O)O)C(=O)N[C@@H](CCC(=O)O)C(=O)N[C@@H](Cc1ccc(OS(=O)(=O)O)cc1)C(=O)N[C@@H](CC(C)C)C(=O)N[C@@H](CCC(N)=O)C(=O)O (H-DEEEIPEE[sY]LQ-OH) |
| 17 | 42.8 µM | CC[C@H](C)[C@H](NC(=O)[C@H](CCC(=O)O)NC(=O)[C@H](CCC(=O)O)NC(=O)[C@H](Cc1ccccc1)NC(=O)[C@@H](N)CC(=O)O)C(=O)N1CCC[C@H]1C(=O)N[C@@H](CCC(=O)O)C(=O)N[C@@H](C)C(=O)N[C@@H](Cc1ccc(OS(=O)(=O)O)cc1)C(=O)N[C@@H](CC(C)C)C(=O)N[C@@H](CCC(N)=O)C(=O)O (H-DFEEIPEA[sY]LQ-OH) |
| 52 | 13.6 µM | CC[C@H](C)[C@H](NC(=O)[C@H](CCC(=O)O)NC(=O)[C@H](CCC(=O)O)NC(=O)[C@H](Cc1ccccc1)NC(=O)[C@@H](N)CC(=O)O)C(=O)N1CCC[C@H]1C(=O)N[C@@H](CCC(=O)O)C(=O)N[C@@H](CCC(=O)O)C(=O)N[C@@H](C)C(=O)N[C@@H](CC(C)C)C(=O)N[C@@H](CCC(N)=O)C(=O)O (H-DFEEIPEEALQ-OH) |
| < 3 | > 200 µM | CC(C)C[C@H](NC(=O)[C@H](Cc1ccc(OS(=O)(=O)O)cc1)NC(=O)[C@H](CCC(=O)O)NC(=O)[C@H](CCC(=O)O)NC(=O)[C@@H]1CCCN1C(=O)[C@H](C)NC(=O)[C@H](CCC(=O)O)NC(=O)[C@H](CCC(=O)O)NC(=O)[C@H](Cc1ccccc1)NC(=O)[C@@H](N)CC(=O)O)C(=O)N[C@@H](CCC(N)=O)C(=O)O (H-DFEEAPEE[sY]LQ-OH) |
| < 2 | > 200 µM | CC[C@H](C)[C@H](NC(=O)[C@H](CCC(=O)O)NC(=O)[C@H](CCC(=O)O)NC(=O)[C@H](CC(C)C)NC(=O)[C@@H](N)CC(=O)O)C(=O)N1CCC[C@H]1C(=O)N[C@@H](CCC(=O)O)C(=O)N[C@@H](CCC(=O)O)C(=O)N[C@@H](Cc1ccc(OS(=O)(=O)O)cc1)C(=O)N[C@@H](CC(C)C)C(=O)N[C@@H](CCC(N)=O)C(=O)O (H-DLEEIPEE[sY]LQ-OH) |
| < 3 | > 200 µM | CC[C@H](C)[C@H](NC(=O)[C@H](CCC(=O)O)NC(=O)[C@H](CCC(=O)O)NC(=O)[C@H](Cc1ccccc1)NC(=O)[C@@H](N)CC(=O)O)C(=O)N[C@@H](C)C(=O)N[C@@H](CCC(=O)O)C(=O)N[C@@H](CCC(=O)O)C(=O)N[C@@H](Cc1ccc(OS(=O)(=O)O)cc1)C(=O)N[C@@H](CC(C)C)C(=O)N[C@@H](CCC(N)=O)C(=O)O (H-DFEEIAEE[sY]LQ-OH) |
| < 3 | > 200 µM | CC[C@H](C)[C@H](NC(=O)[C@H](CCC(=O)O)NC(=O)[C@H](CCC(=O)O)NC(=O)[C@H](Cc1ccccc1)NC(=O)[C@@H](N)CC(=O)O)C(=O)N1CCC[C@H]1C(=O)N[C@@H](CCC(=O)O)C(=O)N[C@@H](CCC(=O)O)C(=O)N[C@@H](Cc1ccc(OS(=O)(=O)O)cc1)C(=O)N[C@@H](C)C(=O)N[C@@H](CCC(N)=O)C(=O)O (H-DFEEIPEE[sY]AQ-OH) |
| – | 1.6 µM | CC[C@H](C)[C@H](NC(=O)[C@H](CCC(=O)O)NC(=O)[C@H](CCC(=O)O)NC(=O)[C@H](Cc1ccccc1)NC(=O)[C@H](CC(=O)O)NC(=O)CNC(=O)[C@H](CC(=O)O)NC(=O)[C@H](CC(N)=O)NC(=O)[C@H](Cc1cnc[nH]1)NC(=O)[C@H](CO)NC(=O)[C@H](CCC(N)=O)NC(=O)[C@@H]1CCCN1C(=O)[C@H](CCCCN)NC(=O)[C@@H]1CCCN1C(=O)[C@@H](NC(C)=O)[C@@H](C)O)C(=O)N1CCC[C@H]1C(=O)N[C@@H](CCC(=O)O)C(=O)N[C@@H](CCC(=O)O)C(=O)N[C@@H](Cc1ccc(OS(=O)(=O)O)cc1)C(=O)N[C@@H](CC(C)C)C(=O)N[C@@H](CCC(N)=O)C(=O)O |
| 38 | 18.5 µM | CC[C@H](C)[C@H](NC(=O)[C@H](CCC(=O)O)NC(=O)[C@H](CCC(=O)O)NC(=O)[C@H](Cc1ccccc1)NC(=O)[C@@H](N)CC(=O)O)C(=O)N1CCC[C@H]1C(=O)N[C@@H](C)C(=O)N[C@@H](CCC(=O)O)C(=O)N[C@@H](Cc1ccc(OS(=O)(=O)O)cc1)C(=O)N[C@@H](CC(C)C)C(=O)N[C@@H](CCC(N)=O)C(=O)O (H-DFEEIPAE[sY]LQ-OH) |
| < 3 | > 200 µM | CC(C)CC(NC(=O)[C@H](Cc1ccc(OS(=O)(=O)O)cc1)NC(=O)[C@H](CCC(=O)O)NC(=O)[C@H](CCC(=O)O)NC(=O)[C@@H]1CCCN1C(=O)C(CC(C)C)NC(=O)[C@H](CCC(=O)O)NC(=O)[C@H](CCC(=O)O)NC(=O)[C@H](Cc1ccccc1)NC(=O)[C@@H](N)CC(=O)O)C(=O)N[C@@H](C)C(=O)O (stereo in doubt) |
| 26 | 27 µM | CC[C@H](C)[C@H](NC(=O)[C@H](CCC(=O)O)NC(=O)[C@H](CCC(=O)O)NC(=O)[C@H](Cc1ccccc1)NC(=O)[C@H](CC(=O)O)NC(=O)CN)C(=O)N[C@H](C)C(=O)N[C@@H](CCC(=O)O)C(=O)N[C@@H](CCC(=O)O)C(=O)N[C@@H](Cc1ccc(OS(=O)(=O)O)cc1)C(=O)N[C@@H](CC(C)C)C(=O)N[C@@H](CCC(N)=O)C(=O)O |
| 53 | 13.3 µM | CC[C@H](C)[C@H](NC(=O)[C@H](C)NC(=O)[C@H](CCC(=O)O)NC(=O)[C@H](Cc1ccccc1)NC(=O)[C@@H](N)CC(=O)O)C(=O)N1CCC[C@H]1C(=O)N[C@@H](CCC(=O)O)C(=O)N[C@@H](CCC(=O)O)C(=O)N[C@@H](Cc1ccc(OS(=O)(=O)O)cc1)C(=O)N[C@@H](CC(C)C)C(=O)N[C@@H](CCC(N)=O)C(=O)O (H-DFEAIPEE[sY]LQ-OH) |
| 86 | 8.3 µM | CC(C)C[C@H](NC(=O)[C@H](Cc1ccc(OS(=O)(=O)O)cc1)NC(=O)[C@H](CCC(=O)O)NC(=O)[C@H](CCC(=O)O)NC(=O)[C@@H]1CCCN1C(=O)[C@H](CC(C)C)NC(=O)[C@H](CCC(=O)O)NC(=O)[C@H](CCC(=O)O)NC(=O)[C@H](Cc1ccccc1)NC(=O)[C@H](CC(=O)O)NC(=O)CN)C(=O)N[C@@H](CCC(N)=O)C(=O)O (H-GDFEELPEE[sY]LQ-OH) |
| 41 | 17.3 µM | CC[C@H](C)[C@H](NC(=O)[C@H](CCC(=O)O)NC(=O)[C@H](CCC(=O)O)NC(=O)[C@H](Cc1ccccc1)NC(=O)[C@H](CC(=O)O)NC(=O)CN)C(=O)N(C)CC(=O)N[C@@H](CCC(=O)O)C(=O)N[C@@H](CCC(=O)O)C(=O)N[C@@H](Cc1ccc(OS(=O)(=O)O)cc1)C(=O)N[C@@H](CC(C)C)C(=O)N[C@@H](CCC(N)=O)C(=O)O (H-GDFEEI[Sar]EE[sY]LQ-OH) |
| 215 | 3.3 µM | CC[C@H](C)[C@H](NC(=O)[C@H](CCC(=O)O)NC(=O)[C@H](CCC(=O)O)NC(=O)[C@H](Cc1ccc(O)cc1)NC(=O)[C@H](CC(=O)O)NC(=O)CN)C(=O)N1CCC[C@H]1C(=O)N[C@@H](CCC(=O)O)C(=O)N[C@@H](CCC(=O)O)C(=O)N[C@@H](Cc1ccc(OS(=O)(=O)O)cc1)C(=O)N[C@@H](CC(C)C)C(=O)N[C@@H](CCC(N)=O)C(=O)O (H-GDYEEIPEE[sY]LQ-OH) |

— ChEMBL document CHEMBL1123843, “Anticoagulant peptides: nature of the interaction of the C-terminal region of hirudin with a noncatalytic binding site on thrombin” (J Med Chem, 1987)
